In US12581252B2, “Substituted pyrrolo[3,4-b]pyridines as PI3K-α inhibitors” (Relay Therapeutics, Inc., priority 2020, dated 2026) one finds IC50 data, which are given here for 47 compounds.

The target of experiment [1] is H1047R PIK3CA enzyme (Homo sapiens, UniProt P42336, H1047R). The experiment in a line: ADP-Glo Biochemical PIK3CA Kinase Assay. In general terms: ADP-Glo first removes unused ATP, then detects ADP through luciferase.
Experiment [2] can be described thus: cells. The conditions noted are these: Homo sapiens, MCF-10A, read-out: MCF10A IC50.

Sequence of H1047R PIK3CA enzyme (P42336 whole entry H1047R): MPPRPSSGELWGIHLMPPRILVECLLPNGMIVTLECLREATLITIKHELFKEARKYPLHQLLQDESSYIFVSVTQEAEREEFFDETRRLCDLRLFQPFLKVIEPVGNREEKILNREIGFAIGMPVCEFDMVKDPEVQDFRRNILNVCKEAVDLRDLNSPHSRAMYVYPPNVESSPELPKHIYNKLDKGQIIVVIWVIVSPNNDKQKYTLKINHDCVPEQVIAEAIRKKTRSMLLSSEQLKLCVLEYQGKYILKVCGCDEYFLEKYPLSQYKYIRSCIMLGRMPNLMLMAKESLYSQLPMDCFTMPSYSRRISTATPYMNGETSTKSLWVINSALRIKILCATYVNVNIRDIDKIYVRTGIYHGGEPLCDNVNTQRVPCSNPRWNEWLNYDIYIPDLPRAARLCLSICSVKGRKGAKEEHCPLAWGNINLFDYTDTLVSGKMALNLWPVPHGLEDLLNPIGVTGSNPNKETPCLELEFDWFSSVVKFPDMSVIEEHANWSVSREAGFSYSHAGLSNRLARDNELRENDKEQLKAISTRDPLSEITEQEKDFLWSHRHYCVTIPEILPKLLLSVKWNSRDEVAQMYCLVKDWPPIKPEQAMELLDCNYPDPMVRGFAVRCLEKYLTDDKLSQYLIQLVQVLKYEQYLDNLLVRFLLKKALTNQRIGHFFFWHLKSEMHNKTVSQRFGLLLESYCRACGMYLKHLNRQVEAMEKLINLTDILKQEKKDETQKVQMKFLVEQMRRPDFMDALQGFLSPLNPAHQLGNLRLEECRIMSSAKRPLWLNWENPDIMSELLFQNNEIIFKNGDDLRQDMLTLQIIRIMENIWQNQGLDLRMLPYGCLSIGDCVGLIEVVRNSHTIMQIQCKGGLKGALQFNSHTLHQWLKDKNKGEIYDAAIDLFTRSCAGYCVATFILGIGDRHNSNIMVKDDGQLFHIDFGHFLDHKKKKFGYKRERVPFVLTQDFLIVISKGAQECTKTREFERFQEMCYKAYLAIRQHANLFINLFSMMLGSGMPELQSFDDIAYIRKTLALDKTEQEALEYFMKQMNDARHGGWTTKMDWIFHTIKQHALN
Sequence of H1047R PIK3CA enzyme (P27986 whole entry partner): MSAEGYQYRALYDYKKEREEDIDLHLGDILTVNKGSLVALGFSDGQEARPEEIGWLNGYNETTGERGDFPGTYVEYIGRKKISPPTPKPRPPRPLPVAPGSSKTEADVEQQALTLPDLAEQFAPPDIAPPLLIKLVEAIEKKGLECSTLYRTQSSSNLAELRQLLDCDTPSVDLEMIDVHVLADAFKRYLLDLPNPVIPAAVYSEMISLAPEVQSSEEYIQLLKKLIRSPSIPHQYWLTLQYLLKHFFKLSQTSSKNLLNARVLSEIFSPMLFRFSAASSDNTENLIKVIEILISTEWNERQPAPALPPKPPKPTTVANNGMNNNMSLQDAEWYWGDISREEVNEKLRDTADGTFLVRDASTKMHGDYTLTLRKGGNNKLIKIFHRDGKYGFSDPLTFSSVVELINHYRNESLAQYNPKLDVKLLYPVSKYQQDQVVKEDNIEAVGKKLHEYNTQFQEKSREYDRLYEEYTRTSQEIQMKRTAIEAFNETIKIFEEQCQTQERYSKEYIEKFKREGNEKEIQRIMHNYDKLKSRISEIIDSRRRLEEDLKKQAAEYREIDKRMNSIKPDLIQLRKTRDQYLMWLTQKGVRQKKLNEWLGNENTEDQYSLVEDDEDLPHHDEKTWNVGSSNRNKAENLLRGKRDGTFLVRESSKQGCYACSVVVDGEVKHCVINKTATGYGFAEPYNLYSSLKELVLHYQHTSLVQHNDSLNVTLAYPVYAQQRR

A word on the IC50: it is the concentration at which inhibition is half-maximal. In the case of `N#CCCc1cc(NC(=O)c2cc(F)cc(C(F)(F)F)c2)c2c(c1)C(=O)N[C@H]2c1cc(F)ccc1Cl` (stereo in doubt) [Compound I-2169], the IC50 in experiment [1] is no more than 100 nM; in experiment [2] it was less than 1000 nM.
For `O=C1N[C@@H](c2cc(F)ccc2Cl)c2c(NC(=O)N3C[C@@H](O)c4ccc(F)cc43)cccc21` (stereo in doubt) [Compound I-2171], the results for the IC50 in experiment [1] and in experiment [2] were no more than 100 nM and less than 1000 nM, respectively.
As for `Cc1ccccc1C1NC(=O)c2cccc(NC(=O)c3csc4ccccc34)c21` (stereo not shown) [Compound I-1, N-(1-Oxo-3-(o-tolyl)isoindolin-4-yl)benzo[b]thiophene-3-carboxamide], the IC50 is 100 to 500 nM in experiment [1] and 1000 to 5000 nM in experiment [2].
On the same counts, the results for `Cc1ccccc1[C@@H]1NC(=O)c2cccc(NC(=O)c3csc4ccccc34)c21` [Compound I-5] are no more than 100 nM and 1000 to 5000 nM.
In the same order, the values of `Cc1ccccc1C1NC(=O)c2cccc(NC(=O)c3nsc4ccccc34)c21` (stereo not shown) [Compound I-13, N-(1-Oxo-3-(o-tolyl)isoindolin-4-yl)benzo[d]isothiazole-3-carboxamide] are 100 to 500 nM and 1000 to 5000 nM.
`Cc1ccccc1C1NC(=O)c2cccc(NC(=O)c3coc4ccc(F)cc34)c21` (stereo not shown) [Compound I-19]: the values for the IC50 in experiment [1] and in experiment [2] were 500 to 1000 nM and 1000 to 5000 nM, respectively.
Take `O=C1N[C@@H](c2cccc(F)c2F)c2c(NC(=O)c3csc4ccccc34)ccnc21` [Compound I-22]: the IC50 in experiment [1] lay within 500 to 1000 nM; in experiment [2], 1000 to 5000 nM.
On the same counts, the results for `[2H]C1(c2ccccc2C)NC(=O)c2cccc(NC(=O)c3csc4ccccc34)c21` (stereo not shown) [Compound I-25] are no more than 100 nM and 1000 to 5000 nM.
In the case of `Cc1ccccc1C1NC(=O)c2cccc(NC(=O)c3csc4ccc(F)cc34)c21` (stereo not shown) [Compound I-26], the IC50 fell in the range of 100 to 500 nM in experiment [1] and 1000 to 5000 nM in experiment [2].
Consider `Cc1ccccc1C1NC(=O)c2cc(Br)cc(NC(=O)c3csc4ccccc34)c21` (stereo not shown) [Compound I-29, N-[6-bromo-3-(2-methylphenyl)-1-oxo-2,3-dihydro-1H-isoindol-4-yl]-1-benzothiophene-3-carboxamide], for which the half-maximal inhibitory concentration (IC50) in experiment [1] is no more than 100 nM; in experiment [2] it was less than 1000 nM.
As for `O=C1N[C@H](c2ccccc2Cl)c2c(NC(=O)c3csc4ccccc34)ccnc21` [Compound I-33], the results for the IC50 in experiment [1] and in experiment [2] were 100 to 500 nM and 1000 to 5000 nM, respectively.
As for `Cc1ccccc1C1NC(=O)c2cc(N)cc(NC(=O)c3csc4ccccc34)c21` (stereo not shown) [Compound I-34], the concentration for half-maximal inhibition (IC50) in experiment [1] is no more than 100 nM; in experiment [2], 1000 to 5000 nM.
Regarding `COc1ccc(NC(=O)c2csc3ccccc23)c2c1C(=O)NC2c1ccccc1C` (stereo not shown) [Compound I-35], the IC50 in experiment [1] is no more than 100 nM; in experiment [2], 1000 to 5000 nM.
On the same counts, the results for `Cc1ccccc1[C@H]1NC(=O)c2cccc(NC(=O)c3csc4c(F)cccc34)c21` [Compound I-38] are 100 to 500 nM and 1000 to 5000 nM.
With `CNc1cc(NC(=O)c2csc3ccccc23)c2c(c1)C(=O)NC2c1ccccc1C` (stereo not shown) [Compound I-39], the IC50 in experiment [1] was no more than 100 nM; in experiment [2], 1000 to 5000 nM.
Regarding `Cc1ccccc1C1NC(=O)c2cc(N)cc(NC(=O)c3cc(F)cc(C(F)(F)F)c3)c21` (stereo not shown) [Compound I-40], the figures for the half-maximal inhibitory concentration (IC50) in experiment [1] and in experiment [2] were no more than 100 nM and 1000 to 5000 nM, respectively.
Take `Cc1ccccc1C1NC(=O)c2cccc(NC(=O)N3CCc4ccccc43)c21` (stereo not shown) [Compound I-43, N-[3-(2-methylphenyl)-1-oxo-2,3-dihydro-1H-isoindol-4-yl]-2,3-dihydro-1H-indole-1-carboxamide]: the figures for the IC50 in experiment [1] and in experiment [2] were no more than 100 nM and 1000 to 5000 nM, respectively.
On the same counts, the results for `Cc1ccccc1C1NC(=O)c2cccc(NC(=O)N3CC(C)(C)c4ccccc43)c21` (stereo not shown) [Compound I-45] are 1000 to 10000 nM and 10000 to 36000 nM.
On the same counts, the results for `Cc1ccccc1C1NC(=O)c2cccc(NC(=O)c3csc4cnccc34)c21` (stereo not shown) [Compound I-46] are 100 to 500 nM and 10000 to 36000 nM.
On the same counts, the results for `Cc1ccccc1C1NC(=O)c2cc(N)cc(NC(=O)c3nsc4ccccc34)c21` (stereo not shown) [Compound I-50, N-[6-Amino-3-(2-methylphenyl)-1-oxo-2,3-dihydro-1H-isoindol-4-yl]-1,2-benzothiazole-3-carboxamide] are no more than 100 nM and less than 1000 nM.
Turning to `Cc1ccccc1C1NC(=O)c2cc(NC3COC3)cc(NC(=O)c3csc4ccccc34)c21` (stereo not shown) [Compound I-51], the IC50 in experiment [1] was no more than 100 nM; in experiment [2], less than 1000 nM.
On the same counts, the results for `CC(=O)Nc1cc(NC(=O)c2csc3ccccc23)c2c(c1)C(=O)NC2c1ccccc1C` (stereo not shown) [Compound I-52] are no more than 100 nM and less than 1000 nM.
In the same order, the values of `Cc1ccccc1C1NC(=O)c2cc(NC(C)C)cc(NC(=O)c3csc4ccccc34)c21` (stereo not shown) [Compound I-53] are no more than 100 nM and less than 1000 nM.
With `Cc1ccccc1C1NC(=O)c2cc(Br)cc(NC(=O)c3cc(F)cc(C(F)(F)F)c3)c21` (stereo not shown) [Compound I-54], the concentration for half-maximal inhibition (IC50) lay within 100 to 500 nM in experiment [1] and 1000 to 5000 nM in experiment [2].
Consider `CNC(=O)c1cc(NC(=O)c2csc3ccccc23)c2c(c1)C(=O)N[C@H]2c1ccccc1C` [Compound I-76, (S)-7-(Benzo[b]thiophene-3-carboxamido)-N-methyl-3-oxo-1-(o-tolyl)isoindoline-5-carboxamide], for which the values for the IC50 in experiment [1] and in experiment [2] were no more than 100 nM and less than 1000 nM, respectively.
For `O=C1NC(c2cc(F)ccc2Cl)c2c(NC(=O)c3nsc4ccccc34)cccc21` (stereo not shown) [Compound I-83], the IC50 in experiment [1] is no more than 100 nM; in experiment [2] it was less than 1000 nM.
In the same order, the values of `Cc1ccccc1C1NC(=O)c2cc(CNC(=O)OC(C)(C)C)cc(NC(=O)c3csc4ccccc34)c21` (stereo not shown) [Compound I-87] are no more than 100 nM and 1000 to 5000 nM.
For the compound `Cc1ccccc1[C@@H]1NC(=O)c2cc(N)cc(NC(=O)c3nsc4ccccc34)c21` [Compound I-92], the IC50 was no more than 100 nM in experiment [1] and less than 1000 nM in experiment [2].
Take `C=Cc1cc(NC(=O)c2csc3ccccc23)c2c(c1)C(=O)NC2c1ccccc1C` (stereo not shown) [Compound I-100, N-[6-Ethenyl-3-(2-methylphenyl)-1-oxo-2,3-dihydro-1H-isoindol-4-yl]-1-benzothiophene-3-carboxamide]: the values for the IC50 in experiment [1] and in experiment [2] were no more than 100 nM and 5000 to 10000 nM, respectively.
`Cc1ccccc1C1NC(=O)c2cc(C(=O)NCC(F)F)cc(NC(=O)c3nsc4ccccc34)c21` (stereo not shown) [Compound I-121]: the half-maximal inhibitory concentration (IC50) in experiment [1] was no more than 100 nM; in experiment [2] it was less than 1000 nM.
Take `O=C1NC(c2ccccc2C(F)F)c2c(NC(=O)c3nsc4ccccc34)cccc21` (stereo not shown) [Compound I-122]: the figures for the IC50 in experiment [1] and in experiment [2] were no more than 100 nM and 1000 to 5000 nM, respectively.
For `O=C(Nc1cc(Br)cc2c1C(c1cc(F)ccc1Cl)NC2=O)c1cc(F)cc(C(F)(F)F)c1` (stereo not shown) [Compound I-124], the IC50 was no more than 100 nM in experiment [1] and 1000 to 5000 nM in experiment [2].
Consider `Nc1cc(NC(=O)c2cc(F)cc(C(F)(F)F)c2)c2c(c1)C(=O)NC2c1cc(F)ccc1Cl` (stereo not shown) [Compound I-125], for which the 50% inhibitory concentration (IC50) in experiment [1] is no more than 100 nM; in experiment [2] it was less than 1000 nM.
With `O=C1NC(c2cc(F)ccc2Cl)c2c(NC(=O)c3nsc4ccccc34)cc(Br)cc21` (stereo not shown) [Compound I-144], the IC50 is no more than 100 nM in experiment [1] and 5000 to 10000 nM in experiment [2].
On the same counts, the results for `COCc1cc(NC(=O)c2nsc3ccccc23)c2c(c1)C(=O)NC2c1ccccc1C` (stereo not shown) [Compound I-146, N-(6-(Methoxymethyl)-1-oxo-3-(o-tolyl)isoindolin-4-yl)benzo[d]isothiazole-3-carboxamide] are no more than 100 nM and 5000 to 10000 nM.
In the same order, the values of `COc1ccc(CNCc2cc(NC(=O)c3nsc4ccccc34)c3c(c2)C(=O)NC3c2cc(F)ccc2Cl)cc1` (stereo not shown) [Compound I-155] are no more than 100 nM and 1000 to 5000 nM.
On the same counts, the results for `O=C(Nc1cc(-c2cn[nH]c2)nc2c1C(c1cc(F)ccc1Cl)NC2=O)c1cc(F)cc(C(F)(F)F)c1` (stereo not shown) [Compound I-161] are no more than 100 nM and 1000 to 5000 nM.
Regarding `CNC(=O)c1cc(NC(=O)c2nsc3ccccc23)c2c(c1)C(=O)N[C@@H]2c1ccccc1C` [Compound I-164], the IC50 in experiment [1] was in the range of 1000 to 10000 nM; in experiment [2], 10000 to 36000 nM.
Consider `Cc1ccccc1[C@@H]1NC(=O)c2cc(C(=O)NCC(F)F)cc(NC(=O)c3nsc4ccccc34)c21` [Compound I-166], for which the results for the IC50 in experiment [1] and in experiment [2] were no more than 100 nM and less than 1000 nM, respectively.
With `O=C1N[C@H](c2cc(F)ccc2C(F)F)c2c(NC(=O)c3nsc4ccccc34)cccc21` [Compound I-167], the IC50 in experiment [1] was no more than 100 nM; in experiment [2] it was 1000 to 5000 nM.
As to `CC(C)(O)c1cc(NC(=O)c2cc(F)cc(C(F)(F)F)c2)c2c(c1)C(=O)N[C@H]2c1cc(F)ccc1Cl` [Compound I-189], the IC50 was no more than 100 nM in experiment [1] and less than 1000 nM in experiment [2].
`CC(C)(O)c1cc(NC(=O)c2nsc3ccccc23)c2c(c1)C(=O)N[C@H]2c1cc(F)ccc1Cl` [Compound I-192]: the IC50 in experiment [1] is no more than 100 nM; in experiment [2] it was less than 1000 nM.
Take `Cc1ccccc1C1NC(=O)c2cc(CS(C)(=O)=O)cc(NC(=O)c3nsc4ccccc34)c21` (stereo not shown) [Compound I-202, N-(6-((Methylsulfonyl)methyl)-1-oxo-3-(o-tolyl)isoindolin-4-yl)benzo[d]isothiazole-3-carboxamide]: the IC50 is no more than 100 nM in experiment [1] and less than 1000 nM in experiment [2].
On to `Nc1cc(NC(=O)c2cc(F)cc(C(F)(F)F)c2)c2c(c1)C(=O)N[C@H]2c1cc(F)ccc1Cl` [Compound I-218], for which the IC50 was no more than 100 nM in experiment [1] and less than 1000 nM in experiment [2].
In the same order, the values of `Cn1cc(-c2cc(NC(=O)c3cc(F)cc(C(F)(F)F)c3)c3c(c2)C(=O)NC3c2cc(F)ccc2C(F)F)cn1` (stereo not shown) [Compound I-220] are no more than 100 nM and less than 1000 nM.
On to `CC(C)(O)c1cc(NC(=O)c2cc(F)cc(C(F)(F)F)c2)c2c(c1)C(=O)N[C@H]2c1cc(F)ccc1C(F)F` [Compound I-264], for which the results for the IC50 in experiment [1] and in experiment [2] were no more than 100 nM and 1000 to 5000 nM, respectively.
For `Nc1cc(NC(=O)c2cc(F)cc(C(F)(F)F)c2)c2c(c1)C(=O)NC2c1cc(F)ccc1C(F)F` (stereo not shown) [Compound I-289], the IC50 in experiment [1] is no more than 100 nM; in experiment [2] it was less than 1000 nM.
